From US20100261246A1, “METHOD FOR INHIBITING TELOMERASE REACTION” (PANASONIC CORPORATION, priority 2009, published 2010)

What was measured:
telomerase [1] = assay: Telomerase activity measurement with S7700 kit, telomerase reaction and PCR carried out sequentially in one mix, ladder peaks by Bioanalyzer 2100; type: biochemical; conditions: 1.1 μM of TMPyP added
Experimental: In this experiment, comparative studies of effects of inhibiting telomerase by an anionic phthalocyanine and cationic porphyrin (TMPyP) that is a conventionally known typical material having an effect of inhibiting telomerase were carried out using a kit for telomerase activity measurement manufactured by Millipore Corporation (TRAPEZE Telomeraze Detection Kit S7700).
TRAPEZE Telomeraze Detection Kit S7700 (hereinafter, merely referred to as S7700 kit) is a kit that includes 10× TRAP Reaction buffer, 50× dNTPs Mix, TS primer, Primer Mix, and a control cell pellet.
The TS primer is an oligo DNA consisting of 5′-[sequence]-3′, and serves as an initiation sequence of the telomerase reaction upon binding of telomerase, similarly to a human telomeric DNA sequence.
Therefore, the Primer Mix in the S7700 kit includes RP primer. This primer is an oligo DNA having a sequence complementary to the sequence elongated by the telomerase reaction, and thus, the telomerase reaction product can be amplified to a detectable level on electrophoresis by carrying out PCR using the aforementioned TS primer and the RP primer.
As described above, the telomerase reaction and PCR are carried out sequentially in the telomerase activity measurement using the S7700 kit. […]

TITANIUM Taq polymerase = assay: PCR control (36-bp PCR amplification product) in S7700 kit one-mix reaction, Bioanalyzer 2100; type: biochemical; conditions: TMPyP concentration not less than 3 μM
Experimental: Therefore, TITANIUM […] polymerase (manufactured by Clontech Laboratories) was used in the present studies.
For example, it is highly probable that materials which nonspecifically bind to double-stranded DNAs inhibit PCR.
The S7700 kit includes a set of a template DNA and a primer for such ascertainment in the Primer Mix, and a 36-bp PCR amplification product is obtained from the set when the PCR is carried out.
Therefore, when the effect of a material expected to inhibit the telomerase reaction is verified using the S7700 kit, it is necessary to confirm that the telomerase reaction product is not detected in final results of electrophoresis, and that the 36-bp PCR product is normally amplified.
First, in accordance with the protocol of the kit, a telomerase solution was prepared from the attached control cell pellet. Next, a reaction solution in a total volume of 20 μL was prepared by mixing 2 μL of 10× TRAP Reaction buffer, 0.4 μL of 50× dNTP Mix, 0.4 μL of TS primer, 0.4 μL of Primer Mix, 0.4 μL of TITANIUM Taq polymerase, 14.8 μL of milliQ water (purified water), and 1.6 μL of the telomerase solution prepared as described above.
Subsequently, the telomerase reaction was allowed by standing this reaction solution under a condition of 30° C. for 30 min. Thereafter, PCR was carried out by repeating 33 times a thermo cycle of: 30 sec at 94° C.; 30 sec at 59° C.; and 1 min at 72° C. […]

telomerase [2] = assay: Telomerase reaction carried out first, then PCR of the diluted reaction solution, gel electrophoresis, with or without λDNA; type: biochemical; conditions: final concentrations 0.1 to 10 μM
Experimental: (§1) Moreover, effects of inhibiting telomerase by TMPyP and anionic phthalocyanines were compared in Comparative Example 3 and Example 4 to 5 below. In these experiments, the S7700 kit was used similarly to the aforementioned Comparative Examples 1 to 2 and Examples 1 to 3. However, in Comparative Examples 1 to 2 and Examples 1 to 3 described above, the reagents required only for the telomerase reaction and PCR were all mixed first, and the telomerase reaction and PCR were carried out sequentially by regulating the reaction temperature. To the contrary, in the following Comparative Example 3 and Examples 4 to 5, only the reagents required for the telomerase reaction were first mixed to carry out a telomerase reaction, and a part of the reaction solution and the reagents required for the PCR were mixed to carry out the PCR.
In addition, in each of the following Comparative Example 3 and Examples 4 to 5, experiments were carried out with or without addition of a λDNA in the telomerase reaction. Addition of the λDNA was intended to reproduce for mimicking the conditions in which a large amount of double-stranded DNAs are present as in the case of genomic DNAs in cells, and to study the effects of inhibiting telomerase by TMPyP or anionic phthalocyanines even under conditions more approximate to those in vivo, by adding a λDNA.
Telomerase reaction solution in a total volume of 10 μL were prepared by mixing 1 μL of 10× TRAP Reaction buffer, 0.2 μL of 50× dNTP Mix, 0.2 μL of TS primer, 4 μL of the telomerase solution prepared in Comparative Example 1, 2 μL of the TMPyP aqueous solution, and 2.6 μL of milliQ water (the reaction solutions having final TMPyP concentrations of 0 M, 0.1 μM, 0.3 μM, 1 μM, 3 μM and 10 μM were prepared, respectively). Then, the reaction solutions were stood under a condition of 30° C. for 60 min to allow a telomerase reaction to be carried out.
(§2) Next, 4 μL of a solution prepared by diluting the solution after the telomerase reaction 20 times with milliQ water, 0.2 μL of 50× dNTP Mix, 0.2 μL of TS primer, 0.2 μL of Primer Mix, 0.1 μL of TaKaLa LA Taq Hot Start Version (manufactured by Takara Bio Inc.), 1 μL of 10× LA PCR buffer II (Mg^2+ plus) (buffer solution included in TaKaLa LA Taq Hot Start Version), and 4.3 μL of milliQ water were mixed to prepare a PCR solution in a total volume of 10 μL. Then, PCR was carried out by allowing this PCR solution to stand under temperature conditions in which a thermo cycle of: 30 sec at 95° C.; 30 sec at 59° C.; and 30 sec at 72° C. was repeated 30 times.
(§3) Finally, the solution after the PCR was electrophoresed on a 10% polyacrylamide gel, and stained with GelStar Nucleic Acid Stain (manufactured by Takara Bio Inc.). […] In the order from the leftmost lane, the results with final concentrations of TMPyP being 0 M, 0.1 μM, 0.3 μM, 1 μM, 3 μM and 10 μM are shown.
On the other hand, experiments in which a λDNA was added to the telomerase reaction solution were also carried out. More specifically, in preparing the telomerase reaction solution described above, 2.6 μL of a λDNA solution (manufactured by Takara Bio Inc.) was mixed in place of mixing 2.6 μL of milliQ water. Other telomerase reaction temperature/time schedule, PCR solution preparation condition, PCR temperature/time schedule, electrophoresis condition were just the same.

[3] = tested on: TaKaLa LA Taq Hot Start Version (polymerase reaction); assay: PCR control band in the separate telomerase reaction / PCR experiment; type: biochemical; conditions: 10 μM, no addition of λDNA
Experimental: as §1, §2, §3

[4] = tested on: G-quadruplex structure (human telomeric oligo DNA); assay: Absorbance 480 to 800 nm of phthalocyanine mixed with G-quadruplex solutions; type: binding; conditions: for interaction with the G-quadruplex structure (absorption peak): 15 μM compound solution, 50 mM HEPES, 100 mM NaCl, pH7
Experimental: Hereinafter, the interaction between anionic phthalocyanines and various DNAs was studied in Examples 6, 7, 8 and 9. For this purpose, a solution containing a G-quadruplex structure, a solution including a single-stranded DNA, and a solution containing a double-stranded DNA were first prepared according to the following procedures.
A solution of 50 mM HEPES and 100 mM NaCl, pH7 (total volume: 100 μL) containing a single-stranded DNA consisting of a sequence of 5′-[…]-3′ (SEQ ID NO: 2; this sequence being similar to a sequence of a human telomere portion, and thus the DNA referred to as “human telomeric oligo DNA” hereafter) was incubated at 90° C. for 5 min, and thereafter cooled to 0° C. at a rate of temperature fall of 2° C./min, followed by finally incubating at 0° C. for 2 hrs.
The concentrations of the human telomeric oligo DNA contained in the solution were 0, 0.5, 2, 5, 10, 25, 50 and 100 μM.
The absolute values of the positive and negative peaks were maximized for the solution having the human telomeric oligo DNA concentration of 100 μM, and dropped in the order of 50, 25, 10, 5, 2 and 0.5 μM. […] Hereafter, G-quadruplex solutions prepared from the solutions having human telomeric oligo DNA concentrations of 100, 50, 25, 10, 5, 2 and 0.5 μM are referred to as G-quadruplex solutions A, B, C, D, E, F and G, respectively. On the other hand, the solution without the human telomeric oligo DNA contained therein is referred to as NC solution.
First, a solution of 50 mM HEPES and 100 mM NaCl, pH7 (total volume: 20 μL) containing 15 μM CuPC was prepared. Then, this CuPC solution was mixed with each of the G-quadruplex solutions C, D, E and F and the NC solution, and the absorbance of these liquid mixtures were measured at 480 to 800 nm.
First, a solution of 50 mM HEPES and 100 mM NaCl, pH7 (total volume: 20 μL) containing 15 μM NiPC was prepared. Then, this NiPC solution was mixed with each of the G-quadruplex solutions D, E, F and G, and the NC solution, and the absorbance of these liquid mixtures were measured at 480 to 800 nm.
First, a solution of 50 mM HEPES and 100 mM NaCl, pH7 (total volume: 20 μL) containing 15 μM PC was prepared. Then, this PC solution was mixed with each of the G-quadruplex solutions D, E, F and G, and the NC solution, and the absorbance of these liquid mixtures were measured at 480 to 800 nm.
First, a solution of 50 mM HEPES and 100 mM NaCl, pH7 (total volume: 20 μL) containing 15 μM CoPC was prepared. Then, this CoPC solution was mixed with each of the G-quadruplex solutions B, C, D and G, and the NC solution, and the absorbance of these liquid mixtures were measured at 480 to 800 nm.

single-stranded DNA = assay: Absorbance 480 to 800 nm of phthalocyanine mixed with single-stranded DNA solution; type: binding; conditions: 15 μM compound solution, DNA 50 μM, pH7
Experimental: A solution of 50 mM HEPES and 100 mM NaCl, pH7 (total volume: 100 μL) containing a single-stranded DNA consisting of a sequence of 5′-[…]-3′ sequence (SEQ ID NO: 3) at a concentration of 50 μM was prepared, which was incubated at 90° C. for 5 min, and thereafter cooled to 0° C. at a rate of temperature fall of 2° C./min, followed by finally incubating at 0° C. for 2 hrs. The DNA in thus resulting solution was a single-stranded DNA even after the incubation (hereafter, the solution referred to as “single-stranded DNA solution”).
(§4) Next, the aforementioned CuPC solution and single-stranded DNA solution, and the aforementioned CuPC solution and double-stranded DNA solution were similarly mixed, respectively. And then the absorbance of these liquid mixtures was measured at 480 to 800 nm. FIG. 9(A) and FIG. 9(B) show the results of the measurement in the cases of the single-stranded DNA solution and the double-stranded DNA solution, respectively.
as §4, with “NiPC” for “CuPC”, “respectively;” for “respectively. And then”, “11(A)” for “9(A)”, “11(B)” for “9(B)”, “respectively. In each drawing, the result obtained when the NC solution was used is also shown together.” for “respectively.”
as §4, with “PC” for “CuPC”, “respectively;” for “respectively. And then”, “mixture” for “mixtures”, “13(A)” for “9(A)”, “13(B)” for “9(B)”, “respectively. In each drawing, the result obtained when the NC solution was used is also shown together.” for “respectively.”
as §4, with “CoPC” for “CuPC”, “respectively, and” for “respectively. And”, “15(A)” for “9(A)”, “15(B)” for “9(B)”, “respectively. In each drawing, the result obtained when the NC solution was used is also shown together.” for “respectively.”

double-stranded DNA = assay: Absorbance 480 to 800 nm of phthalocyanine mixed with double-stranded DNA solution; type: binding; conditions: 15 μM compound solution, DNA 50 μM, pH7
Experimental: A solution of 50 mM HEPES and 100 mM NaCl, pH7 (total volume: 100 μL) containing a single-stranded DNA consisting of a sequence of 5′-AGAAGAGAAAGA-3′ (SEQ ID NO: 4) and a single-stranded DNA consisting of a sequence of 5′-TCTTTCTCTTCT-3′ (SEQ ID NO: 5) at each concentration of 50 μM was prepared, which was incubated at 90° C. for 5 min, and thereafter cooled to 0° C. at a rate of temperature fall of 2° C./min, followed by finally incubating at 0° C. for 2 hrs. Since the aforementioned two kinds of DNAs are complementary to one another, both DNAs form a double-stranded DNA in the solution as a result of the incubation (hereafter, the solution referred to as “double-stranded DNA solution”).
as §4
as §4, with “NiPC” for “CuPC”, “respectively;” for “respectively. And then”, “11(A)” for “9(A)”, “11(B)” for “9(B)”, “respectively. In each drawing, the result obtained when the NC solution was used is also shown together.” for “respectively.”
as §4, with “PC” for “CuPC”, “respectively;” for “respectively. And then”, “mixture” for “mixtures”, “13(A)” for “9(A)”, “13(B)” for “9(B)”, “respectively. In each drawing, the result obtained when the NC solution was used is also shown together.” for “respectively.”
as §4, with “CoPC” for “CuPC”, “respectively, and” for “respectively. And”, “15(A)” for “9(A)”, “15(B)” for “9(B)”, “respectively. In each drawing, the result obtained when the NC solution was used is also shown together.” for “respectively.”

Compound	total DNA concentration corresponding to the ladder peaks in the reaction product (telomerase [1])	DNA concentration corresponding to the PCR control peak (TITANIUM Taq polymerase)	inhibition of the telomerase reaction (band of telomerase reaction product) (telomerase [2]; in the presence of λDNA)	inhibition of the telomerase reaction (band of telomerase reaction product) (telomerase [2]; no addition of λDNA)	amplification of the PCR control (band) [3]	interaction with the G-quadruplex structure (absorption peak) [4]	elevation of the peaks in the range of 640 to 720 nm with G-quadruplex ([4]; compared with CuPC, NiPC or PC)	interaction with the single-stranded DNA (absorption spectrum vs NC solution) (single-stranded DNA)	interaction with the double-stranded DNA (absorption spectrum vs NC solution) (double-stranded DNA)
C[n+]1ccc(-c2c3nc(c(-c4cc[n+](C)cc4)c4ccc([nH]4)c(-c4cc[n+](C)cc4)c4nc(c(-c5cc[n+](C)cc5)c5ccc2[nH]5)C=C4)C=C3)cc1 [TMPyP, reference compound]	2.7 ng/µL	not beyond the detection limit	not inhibited at all	inhibited the telomerase reaction	became weaker				
Cobalt(II) phthalocyanine tetracarboxylic acid [CoPC]						an interaction occurred	less than the resultant elevation when CuPC, NiPC or PC was used	an interaction did not occur	an interaction did not occur
Phthalocyanine tetrasulfonic acid [PC]						an interaction occurred		an interaction did not occur	an interaction did not occur
Zinc(II) phthalocyanine tetrasulfonic acid [ZnPC]						specifically interacted with a G-quadruplex structure			
